Measured values taken from ChEMBL document CHEMBL1201862, “PubChem BioAssay data set” (2004).
Each block holds one molecule with its values, some of them ahead of it. The source made the active and inactive calls.

Experiments:
[1] = ATP-based viability loss in HEK293T cells – cell-based, CellTiter-Glo luminescence, cherry-picked samples, set 4, cytotoxicity control, dose response (AID 743441); assay type: functional; settings: HEK293
[2] = target: T1, Scavenger receptor class B member 1 (Mus musculus, UniProt Q61009); test: blockers of DiI-HDL lipid transfer via SR-BI – cell-based, ldlA[mSR-BI] CHO, DiI fluorescence, dry powder, set 10, dose response (AID 624029); assay type: functional
T1 sequence (Q61009 whole entry): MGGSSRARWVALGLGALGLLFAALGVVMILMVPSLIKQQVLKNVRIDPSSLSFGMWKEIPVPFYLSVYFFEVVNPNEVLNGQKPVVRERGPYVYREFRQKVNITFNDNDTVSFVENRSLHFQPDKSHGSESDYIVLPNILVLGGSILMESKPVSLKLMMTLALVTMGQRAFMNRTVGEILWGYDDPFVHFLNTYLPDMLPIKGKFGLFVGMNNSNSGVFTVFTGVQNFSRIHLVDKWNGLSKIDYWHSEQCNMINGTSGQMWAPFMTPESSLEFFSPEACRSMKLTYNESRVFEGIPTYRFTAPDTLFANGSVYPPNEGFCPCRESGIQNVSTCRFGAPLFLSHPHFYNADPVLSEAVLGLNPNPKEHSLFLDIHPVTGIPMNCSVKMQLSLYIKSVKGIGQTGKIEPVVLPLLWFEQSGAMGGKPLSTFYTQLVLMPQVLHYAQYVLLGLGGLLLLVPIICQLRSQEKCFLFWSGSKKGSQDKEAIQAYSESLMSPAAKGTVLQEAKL

[3] = target: T1, Scavenger receptor class B member 1; test: mouse SR-BI DiI-HDL transfer blockers – ldlA[mSR-BI] CHO cells, fluorescence plate reader, dry powder, set 9, dose response (AID 623880); assay type: functional, cell-based
[4] = target: T2, X-box-binding protein 1 (Homo sapiens, UniProt P17861); assay type: functional, Cricetulus griseus;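 also: confirmatory dose-response counter-screen serving a CHOP assay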
T2 sequence (P17861 whole entry): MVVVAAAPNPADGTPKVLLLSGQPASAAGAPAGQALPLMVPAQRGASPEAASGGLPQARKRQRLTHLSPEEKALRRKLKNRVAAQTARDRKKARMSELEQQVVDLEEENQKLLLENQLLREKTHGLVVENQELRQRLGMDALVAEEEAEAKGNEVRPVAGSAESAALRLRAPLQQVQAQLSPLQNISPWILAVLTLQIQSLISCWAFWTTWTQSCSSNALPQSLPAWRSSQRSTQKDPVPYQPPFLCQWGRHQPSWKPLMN

[5] = Counterscreen for activators of the function of SWI/SNF related, matrix associated, actin dependent regulator of chromatin, subfamily a, member 2 (SMARCA2, BRM): Luminescence-based cell-based high throughput dose response assay to identify non-selective compounds using the VP16 reporter assay.; assay type: functional
[6] = target: T3, Polyadenylate-binding protein 1 (Homo sapiens, UniProt P11940); test: MLLE domain peptide-binding blockers, IC50 – biochemical, fluorescence polarization, FITC-PAM2 peptide, dose response (AID 602259); assay type: functional; settings: read-out: IC50_Mean
T3 sequence (P11940 whole entry, the tested form may be a part): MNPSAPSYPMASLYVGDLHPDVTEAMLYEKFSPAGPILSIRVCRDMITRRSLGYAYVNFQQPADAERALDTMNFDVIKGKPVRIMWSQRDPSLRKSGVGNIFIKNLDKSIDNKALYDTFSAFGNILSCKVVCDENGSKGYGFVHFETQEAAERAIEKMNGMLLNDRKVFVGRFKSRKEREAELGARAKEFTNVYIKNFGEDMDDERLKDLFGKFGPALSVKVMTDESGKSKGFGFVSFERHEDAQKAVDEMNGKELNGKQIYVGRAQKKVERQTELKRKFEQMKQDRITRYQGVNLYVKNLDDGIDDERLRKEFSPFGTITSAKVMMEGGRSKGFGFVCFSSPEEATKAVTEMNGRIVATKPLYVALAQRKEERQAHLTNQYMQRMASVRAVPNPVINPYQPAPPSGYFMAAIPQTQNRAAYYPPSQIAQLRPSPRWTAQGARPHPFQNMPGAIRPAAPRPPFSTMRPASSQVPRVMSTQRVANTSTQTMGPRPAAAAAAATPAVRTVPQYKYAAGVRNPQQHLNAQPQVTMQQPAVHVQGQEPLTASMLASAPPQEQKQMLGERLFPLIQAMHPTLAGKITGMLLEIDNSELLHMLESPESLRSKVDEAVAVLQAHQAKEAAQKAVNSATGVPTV

[7] = target: SWI/SNF-related matrix-associated actin-dependent regulator of chromatin subfamily A member 2 (Homo sapiens, UniProt P51531); test: Luminescence-based cell-based high throughput dose response assay to identify activators of the function of SWI/SNF related, matrix associated, actin dependent regulator of chromatin, subfamily a, member 2 (SMARCA2, BRM).; assay type: functional
Sequence of SWI/SNF-related matrix-associated actin-dependent regulator of chromatin subfamily A member 2 (P51531 whole entry): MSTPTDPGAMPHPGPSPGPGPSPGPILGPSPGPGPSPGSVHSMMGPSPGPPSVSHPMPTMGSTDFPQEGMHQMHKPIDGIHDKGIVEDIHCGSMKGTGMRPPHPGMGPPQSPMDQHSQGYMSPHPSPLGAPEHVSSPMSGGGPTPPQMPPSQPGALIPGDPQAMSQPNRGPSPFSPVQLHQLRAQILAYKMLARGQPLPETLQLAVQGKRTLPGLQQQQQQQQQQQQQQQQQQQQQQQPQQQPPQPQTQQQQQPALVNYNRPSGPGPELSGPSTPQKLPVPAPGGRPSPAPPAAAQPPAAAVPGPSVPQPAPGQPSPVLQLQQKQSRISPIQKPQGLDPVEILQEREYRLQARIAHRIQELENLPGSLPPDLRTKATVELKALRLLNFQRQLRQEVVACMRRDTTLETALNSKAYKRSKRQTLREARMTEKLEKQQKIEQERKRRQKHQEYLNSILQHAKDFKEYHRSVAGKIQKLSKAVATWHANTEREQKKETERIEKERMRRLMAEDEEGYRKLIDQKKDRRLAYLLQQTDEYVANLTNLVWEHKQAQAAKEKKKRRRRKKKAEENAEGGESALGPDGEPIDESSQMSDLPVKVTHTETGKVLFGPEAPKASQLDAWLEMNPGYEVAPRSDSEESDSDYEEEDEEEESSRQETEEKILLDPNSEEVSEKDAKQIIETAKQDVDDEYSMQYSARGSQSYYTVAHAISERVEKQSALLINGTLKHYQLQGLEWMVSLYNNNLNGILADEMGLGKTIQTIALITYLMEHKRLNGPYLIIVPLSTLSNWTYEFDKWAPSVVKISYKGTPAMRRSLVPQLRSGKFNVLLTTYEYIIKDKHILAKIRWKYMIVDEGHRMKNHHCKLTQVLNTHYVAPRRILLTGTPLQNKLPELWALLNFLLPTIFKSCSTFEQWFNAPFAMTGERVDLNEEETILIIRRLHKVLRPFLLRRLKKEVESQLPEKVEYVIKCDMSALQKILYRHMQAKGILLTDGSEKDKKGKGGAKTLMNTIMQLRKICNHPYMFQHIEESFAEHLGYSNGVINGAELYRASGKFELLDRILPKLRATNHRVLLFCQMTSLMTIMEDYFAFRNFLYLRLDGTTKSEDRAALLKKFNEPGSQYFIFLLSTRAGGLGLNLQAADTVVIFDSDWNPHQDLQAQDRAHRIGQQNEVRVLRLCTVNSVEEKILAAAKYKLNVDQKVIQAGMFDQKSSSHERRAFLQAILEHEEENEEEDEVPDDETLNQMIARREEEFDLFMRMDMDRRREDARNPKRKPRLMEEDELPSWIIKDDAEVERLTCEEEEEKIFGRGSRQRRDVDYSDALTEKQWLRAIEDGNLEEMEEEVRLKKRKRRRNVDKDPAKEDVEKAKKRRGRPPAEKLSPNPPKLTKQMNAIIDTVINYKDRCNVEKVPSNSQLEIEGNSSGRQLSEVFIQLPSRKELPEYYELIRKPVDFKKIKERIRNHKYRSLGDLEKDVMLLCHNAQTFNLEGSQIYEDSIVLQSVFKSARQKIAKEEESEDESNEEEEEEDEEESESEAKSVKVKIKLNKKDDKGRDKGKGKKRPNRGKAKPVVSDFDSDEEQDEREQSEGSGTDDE

[8] = target: T3, Polyadenylate-binding protein 1; test: MLLE binding blockers, Cy5 peptide tracer – biochemical, fluorescence polarization, Cy5-PAM2 peptide, secondary, miRNA deadenylation inhibitor project, dose response (AID 602260); assay type: functional; settings: read-out: IC50_Mean

Compound: CCOc1ccccc1NC(=O)c1ccc2ccccc2c1
AC50 [1]: > 52 µM (inactive)

AC50 [2]: 34.3 µM (active) | AC50 [3]: 45.4 µM (active)
Compound: O=C(O)CC(C(=O)Nc1cccc(C(F)(F)F)c1)C1CCCO1 (stereo not drawn)

Compound: COc1ccc2c3c(cccc13)C(=O)N(O)C2=O
Absolute IC50 (XBP1) [4]: 10 µM | EC50 [5]: > 91.2 µM (inactive) | IC50 [6]: 35.2 µM (inactive) | EC50 [7]: 26.4 µM (inactive) | IC50 [8]: > 66 µM (inactive)
